Test: Women's Health Study (WHS): randomized trial of low dose aspirin vs placebo, incident cardiovascular events stratified by rs3798220 genotype or Lp(a) level
Type: in vivo, human
Conditions: for relative risk reduction of major vascular events with aspirin: aspirin 100 mg orally on alternate days vs placebo, 10-year follow-up
Excerpt: The genotype of this polymorphism was therefore determined among 26,274 initially healthy women from the Women's Health Study (WHS) who had been randomly allocated to low dose aspirin or placebo and then followed over a 10-year period for incident cardiovascular events (31). This setting afforded the opportunity for prospective assessment not only of rs3798220 association with Lp(a) levels and vascular risk, but also of an interaction between aspirin and genetic effects on risk. Although most of the study participants were Caucasian, there were sufficient numbers of non-Caucasian participants to address population-specific influences on associations between rs3798220 and Lp(a) levels, as have been found in previous comparisons of other apolipoprotein(a) variants among populations with different biogeographic ancestry (32-36).
Study Populations: The primary study population derived from the Women's Health Study (WHS), a randomized trial of aspirin (100 mg orally on alternate days) and placebo in the primary prevention of cardiovascular disease conducted among initially healthy women aged at least 45 at enrollment who were followed over a 10 year period (1, 2). At enrollment, participants provided baseline clinical and demographic information. 28,345 WHS participants provided blood for plasma and genetic analysis. Among these samples, baseline Lp(a) levels were measured with a turbidimetric assay that is not affected by the number of Kr IV type-2 repeats on the Hitachi 917 analyzer (Roche Diagnostics, Indianapolis, Ind.) (3). Baseline measurement of other lipid fractions, inflammation biomarkers, and other plasma components has been described previously (4). Total incident cardiovascular events adjudicated during the follow-up period included those typically associated with plaque rupture and vessel occlusion such as myocardial infarction (MI), ischemic stroke, and cardiovascular death, as well as those typically associated with progression of underlying atherosclerotic disease defined as revascularization by percutaneous transluminal coronary angioplasty (PTCA) or coronary artery bypass graft (CABG). Major incident cardiovascular events were defined as myocardial infarction, ischemic stroke, or cardiovascular death. In addition, the association between rs3798220 and plasma Lp(a) levels was evaluated in an independent group of 1058 Caucasian men who had participated in the Physicians Health Study (PHS) (5). Among these PHS participants, Lp(a) levels were determined with a standard clinical ELISA-based method (6).
Genotyping: Genotypes for rs3798220 in the WHS participants were determined by an oligonucleotide ligation procedure that combined PCR amplification of target sequences from 3 ng of genomic DNA with subsequent allele-specific oligonucleotide ligation (7). The ligation products of the two alleles were then separated by hybridization to product specific oligonucleotides, each coupled to spectrally distinct Luminex®100™ xMAP microspheres (Luminex, Austin, Tex.). The captured products were fluorescently labeled with streptavidin R-phycoerythrin (Prozyme, San Leandro, Calif.), sorted on the basis of microsphere spectrum, and detected by a Luminex®100™ instrument (8). Genotypes at rs3798220 in the PHS were determined with a fluorescence-based, allele specific, real-time DNA amplification method as described (ABI, Foster City) (9). For the WHS and PHS populations respectively, the fractions of samples with successful genotype determination were 96.3% and 97.8%. Of the 27,289 women with DNA samples for genotyping, full ascertainment for rs3798220 genotype, Lp(a) levels, age, and occurrence of incident cardiovascular events were available for 25,436. Of these, 24,320 were Caucasian, 468 were African-American, 282 were Asian American, 262 where Hispanic, 62 were Native American, and 42 had unknown ancestry.
Statistical methods: Deviations from Hardy-Weinberg equilibrium were evaluated using a log-likelihood ratio test. […]

CC(=O)Oc1ccccc1C(=O)O [aspirin, acetylsalicylic acid]
relative risk reduction of major vascular events with aspirin (Caucasian WHS women, non-carriers of rs3798220 minor allele (TT)): 9% | relative risk reduction of coronary revascularization with aspirin (Caucasian WHS women, rs3798220 heterozygotes, aspirin 100 mg on alternate days vs placebo): 36% | relative risk reduction of major vascular events with aspirin (Caucasian WHS women, rs3798220 heterozygotes): 59% | effect of aspirin on relative risk of vascular events (Caucasian non-carriers of rs3798220 minor allele with Lp(a) above the 90th percentile (65.1 mg/dL)): reduced the relative risk of vascular events | effect of aspirin on relative risk of vascular events (Caucasian non-carriers of rs3798220 minor allele with Lp(a) below the 90th percentile): minimal effect | relative risk reduction for the revascularization endpoint with aspirin (Caucasians with Lp(a) levels above the 90th percentile (65.1 mg/dL), aspirin vs placebo): 39%
